# Results as given in the NIST ThermoML archive (doi:10.1021/je900034d).
# ± gives the expanded uncertainty stated by the source.
# Columns and labels:
# [1] = Molar enthalpy of transition or fusion; conditions: Crystal; DSC
# [2] = Crystal; DTA
SMILES,Molar enthalpy of transition or fusion [1],Normal melting temperature [2]
"c1cc(-c2ccncc2)ccn1 [γ,γ'-bipyridyl]",3.85 ± 0.478 kcal/mol,104.4 ± 0.5 °C
"c1ccc(-c2ccncc2)nc1 [2,4'-bipyridine]",4.16 ± 0.215 kcal/mol,59.7 ± 0.5 °C
"c1cnc2c(c1)ccc1ncccc12 [1,5-diazaphenanthrene]",4.35 ± 0.167 kcal/mol,77.2 ± 0.5 °C
c1ccc(-c2ccncn2)cc1 [4-phenylpyrimidine],4.49 ± 0.167 kcal/mol,61.0 ± 0.5 °C
"c1cnc2ccc3ncccc3c2c1 [4,7-phenanthroline]",5.21 ± 0.263 kcal/mol,172.4 ± 0.5 °C
